Each structure is given as a SMILES string.

One test concerns the target T1, human D2 receptor (Homo sapiens, UniProt P14416).
T1 construct: host or cells: CHO-K1
Put plainly: Functional assay (aequorin, calcium mobilization) in CHO-K1 cells, D2 receptor. It is filed as cell-based. On the set-up: Emax: dose or concentration left out as unconfirmed. To be noted: CHO-K1, read-out: Antagonist Mode Emax%.

The target in test [1] is T2, human serotonin 5-HT1A receptor (Homo sapiens, UniProt P08908).
T2 construct: host or cells: CHO-K1
T2 sequence (P08908 1-422): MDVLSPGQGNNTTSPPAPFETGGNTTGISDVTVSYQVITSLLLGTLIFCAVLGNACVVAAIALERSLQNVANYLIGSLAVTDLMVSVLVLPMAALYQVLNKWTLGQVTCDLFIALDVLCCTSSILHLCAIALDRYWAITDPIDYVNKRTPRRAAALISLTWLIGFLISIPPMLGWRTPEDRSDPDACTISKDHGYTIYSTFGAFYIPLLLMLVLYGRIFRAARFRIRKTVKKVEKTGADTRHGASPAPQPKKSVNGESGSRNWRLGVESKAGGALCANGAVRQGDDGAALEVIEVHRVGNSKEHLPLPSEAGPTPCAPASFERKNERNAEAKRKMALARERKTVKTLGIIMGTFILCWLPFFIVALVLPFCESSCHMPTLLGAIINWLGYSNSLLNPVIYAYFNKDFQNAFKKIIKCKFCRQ
Put plainly: Functional assay (aequorin, calcium mobilization) in CHO-K1 cells, 5-HT1A receptor. As to conditions: CHO-K1, agonist mode. It is filed as cell-based. A general note: A change in cytosolic calcium serves as a functional read-out for many receptors and channels.
Procedure: (§3) Tested and reference compounds were dissolved in dimethyl sulfoxide (DMSO) at a concentration of 10 mM. Serial dilutions were prepared in a 96-well microplate in assay buffer, and 8 to 10 concentrations were tested. […] The assay was executed according to the previously described protocol [45]. After thawing, cells were transferred to assay buffer (DMEM/HAM’s F12 with 0.1% protease-free BSA) and centrifuged. The cell pellet was resuspended in assay buffer, and coelenterazine h was added at final concentrations of 5 µM. The cell suspension was incubated at 16 °C (or 21 °C), protected from light with constant agitation for 16 h (or 4 h), and then diluted with assay buffer to the concentration of 100,000 cells/mL (or 250,000 cells/mL). After 1 h of incubation, 50 µL of the cell’s suspension was dispensed using automatic injectors built into the radiometric and luminescence plate counter MicroBeta2 LumiJET (PerkinElmer, Waltham, NA, USA) into white opaque 96-well microplates preloaded with test compounds. Immediate light emission generated following calcium mobilization was recorded for 30 s. In antagonist mode, after 25–30 min of incubation, the reference agonist was added to the above assay mix, and light emission was re-recorded. […] IC50 and EC50 values were calculated.

The test system of test [2] is mice. As to the kind of experiment: MK-801-induced hyperlocomotion test in mice. It counts as in vivo. As to conditions: MK-801 0.2 mg/kg ip. On the procedure: (§1) Locomotor activity was recorded in actometers separately for each mouse. After 30 min of adaptation, the number of crossings of photo beams was measured during 60 min. […] MK-801 (0.2 mg/kg, ip) was administered 15 min before the experiment, while amphetamine (2.5 mg/kg) was administered subcutaneously (sc) 30 min before the experiment. […] Values are expressed as means ± SD, n = 8–10 mice per group. Statistical analysis: one-way ANOVA (Newman–Keuls post hoc), * p < 0.05, ** p < 0.01, *** p < 0.001.
(§2) The test was performed according to the method described by Carlsson et al.. The mobility of the animals was measured in actometers, i.e., in plastic Opto M3 cages (22 × 12 × 13 cm) connected to a computer with MultiDevice Software v.1.30 (Columbus Instruments, Columbus, OH, USA). The experimental cages were equipped with infrared sources on one side and sensors receiving the emitted rays on the other side of the cage. The crossing of each beam of infrared rays was classified as motor activity. The animals were placed individually in experimental cages immediately after administration of the tested compound, 30 min before the start of the test, to adapt to the new conditions and exclude the occurrence of hyperactivity caused by the change of the environment. Spontaneous locomotor activity was measured every 5 min for 60 min. Mice received two injections: of the tested compound or reference substance (30 min before the test, ip) and of amphetamine (2.5 mg/kg, 30 min before the test, sc) or MK-801 (0.2 mg/kg, 15 min before the test, ip). Control groups received an injection of saline and amphetamine or MK-801, or two injections of saline, respectively. Olanzapine was used as a reference compound.

Test [3] concerns mice. As to the kind of experiment: Amphetamine-induced hyperlocomotion test in mice. It counts as in vivo. As to conditions: amphetamine 2.5 mg/kg sc. How it is done: as §1, §2
Details of test [4]: method as in earlier work. As to conditions: ref 43 (Bubeníková et al.); cited from earlier work.
Test [5] concerns mice. Put plainly: Marble burying test in mice. It is filed as in vivo. How it is done:
Figure 3 The effect of JJGW08 and aripiprazole on the number of buried marbles by mice. Mice were placed individually in cages with a 5 cm bedding layer, where 20 glass balls were placed. The number of buried marbles after 30 min of the test was counted. JJGW08 was administered intraperitoneally (ip) 30 min before the test. The control group received 0.9% NaCl solution (ip) or 1% Tween (ip) for aripiprazole. Values are expressed as means ± SD in the case of one-way ANOVA (aripiprazole) or median with interquartile range in the case of Kruskal–Wallis test (JJGW08), n = 8–10 mice per group. Statistical analysis: one-way ANOVA (Newman–Keuls post hoc), and Kruskal–Wallis test (Dunn post hoc), * p < 0.05, ** p < 0.01, *** p < 0.001.
The test was conducted according to the method described by Broekkamp et al. with minor modifications. Mice were placed individually in plastic cages, identical to their home cages, that contained a layer of bedding and 20 glass balls (1.6 cm in diameter) arranged in a pattern 4 × 5. After 30 min of the experiment, the mice were removed from the cages, and the number of balls buried to at least 2/3 of their size was counted.

The next test has as its system rats. Put plainly: Open field test after MK-801 administration in rats (MK-801-induced hyperlocomotion). It is filed as in vivo. As to conditions: MK-801 0.3 mg/kg ip. On the procedure: Figure 4 The effect of JJGW08 and clozapine on MK-801-induced hyperlocomotion in rats. After the habituation period (30 min, 24 h before the test), locomotor activity was measured individually for each animal in the special apparatus. The walked distance (cm) was monitored at 10-min intervals for 30 min, using a computerized system that tracked the animals’ movement and behavior. JJGW08 and clozapine were administered intraperitoneally (ip) 30 or 60 min before the test, respectively, while MK-801 (0.3 mg/kg) was administered ip 15 min before the start of the experiment. The control group received 0.9% NaCl solution (ip) (or 1% Tween (ip) for clozapine) and MK-801 (0.3 mg/kg, ip). Values are expressed as mean ± SD, n = 7–8 rats per group. Statistical analysis: one-way ANOVA (Newman–Keuls post hoc) * p < 0.05, ** p < 0.01, *** p < 0.001.
The experiment was evaluated according to the method described earlier. It was performed in a soundproof chamber with a 30-min habituation period 24 h before the procedure. The open field apparatus consisted of four black, octagonal, stainless steel arenas (diameter: 80 cm) with 30 cm high walls. Each arena was divided into a peripheral and central sector. The peripheral sector was defined as the region within 20 cm from the walls. The approximate light intensity was 15 lx in the central point of the arena and 4 lx close to its walls.
Individual rats were placed in the central part of the open field and allowed to explore the whole arena for 30 min under dim light (approximately 10 lx) and continuous white noise (65 dB). Forward locomotion (cm/30 min) was registered in 10-min intervals for 30 min and analyzed with the aid of a computerized video tracking system (Videomot, TSE, Bad Homburg, Germany). The arenas were cleaned between tests with 20% (v/v) alcohol and allowed to dry.
The tested compound was administered ip 30 min before the experiment at the dose range of 0.3–30.0 mg/kg, and MK-801 (0.3 mg/kg,) was administered ip 15 min before the procedure. […]

Test [6] deals with T3, human serotonin 5-HT2A receptor (Homo sapiens, UniProt P28223).
T3 construct: host or cells: CHO-K1
It is filed as cell-based. As to conditions: 5-HT2A.
Procedure: as §3

T3 sequence (P28223 whole entry): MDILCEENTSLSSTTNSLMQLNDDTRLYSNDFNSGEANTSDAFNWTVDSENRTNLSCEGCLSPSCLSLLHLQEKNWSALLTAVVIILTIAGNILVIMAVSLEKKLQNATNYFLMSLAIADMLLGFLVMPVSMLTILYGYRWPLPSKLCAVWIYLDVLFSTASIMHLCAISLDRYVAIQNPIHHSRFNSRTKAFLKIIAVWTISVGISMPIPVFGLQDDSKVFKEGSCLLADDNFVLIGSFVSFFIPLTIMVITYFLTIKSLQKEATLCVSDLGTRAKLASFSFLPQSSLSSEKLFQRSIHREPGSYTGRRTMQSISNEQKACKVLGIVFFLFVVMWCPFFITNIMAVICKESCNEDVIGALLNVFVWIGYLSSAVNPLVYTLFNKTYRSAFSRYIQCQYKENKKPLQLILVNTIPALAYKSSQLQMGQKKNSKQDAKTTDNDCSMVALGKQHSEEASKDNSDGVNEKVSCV
T1 sequence (P14416 whole entry): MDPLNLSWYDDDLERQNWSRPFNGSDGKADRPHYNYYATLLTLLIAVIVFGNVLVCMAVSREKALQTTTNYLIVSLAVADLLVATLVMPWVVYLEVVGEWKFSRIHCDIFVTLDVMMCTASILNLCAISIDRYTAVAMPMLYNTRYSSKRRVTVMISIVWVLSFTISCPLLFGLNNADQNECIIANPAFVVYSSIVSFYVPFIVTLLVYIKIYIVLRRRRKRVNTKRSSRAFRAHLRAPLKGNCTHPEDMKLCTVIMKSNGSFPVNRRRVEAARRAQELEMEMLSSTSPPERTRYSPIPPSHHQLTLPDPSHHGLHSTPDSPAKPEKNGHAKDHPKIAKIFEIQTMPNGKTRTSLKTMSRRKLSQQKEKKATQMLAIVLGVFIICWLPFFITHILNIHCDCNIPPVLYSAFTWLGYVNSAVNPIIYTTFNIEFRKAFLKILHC
Procedure for human D2 receptor: as §3

As for `CN1CCc2cccc3c2[C@H]1Cc1ccc(O)c(O)c1-3` [Apomorphine, reference compound], the Emax (usually the greatest response seen or fitted, relative to the assay's reference) at human D2 receptor is 0%.
Regarding `COc1ccccc1N1CCN(CCCCN2C(=O)c3ccccc3C2=O)CC1` [NAN-190, reference compound], the Emax in test [1] was 6%.
In the case of `Cc1cc2c(s1)Nc1ccccc1N=C2N1CCN(C)CC1` [Olanzapine], the entries for the “reduction of MK-801-induced hyperlocomotion” value in the test with mice [2] (0.03 mg/kg ip) and in the test with mice [2] (0.3 mg/kg ip) were 63% and 82%, respectively. The figures for the “reduction of amphetamine-induced hyperlocomotion” value in the test on mice [3] (0.03 mg/kg ip) and with mice [3] (0.3 mg/kg ip) were 54% and 75%, respectively. Besides, in test [4], the “effect on MK-801-induced deficits in the prepulse inhibition test (in words)” value was “restored”.
Take `O=C1CCc2ccc(OCCCCN3CCN(c4cccc(Cl)c4Cl)CC3)cc2N1` [aripiprazole]: the “reduction of the number of buried marbles” value with mice [5] (1.25 mg/kg ip) is listed as 61%; in the test on mice [5] (2.5 mg/kg ip), 69%; with mice [5] (5.0 mg/kg ip), 93%.
For `CN1CCN(C2=Nc3cc(Cl)ccc3Nc3ccccc32)CC1` [clozapine], the “reduction of MK-801-induced hyperlocomotion in the open field” value in the test with rats (10 mg/kg ip) was determined as 53%; in the test with rats (30 mg/kg ip), 98%. In addition, the “effect on MK-801-induced deficits in the prepulse inhibition test (in words)” value in test [4] is “restored”.
Regarding `Cc1nc2n(c(=O)c1CCN1CCC(c3noc4cc(F)ccc34)CC1)CCCC2` [risperidone], the “effect on MK-801-induced deficits in the prepulse inhibition test (in words)” value in test [4] was “ineffective”.
Turning to `CC(N)Cc1c[nH]c2ccc(O)cc12` (stereo not drawn) [α-methylserotonin, reference compound], in test [6] (agonist mode), the “Agonist Mode Emax%” value is given as 100% and the “Agonist Mode pEC50 ± Range” value is 8.5 ± 0.3. For the same compound, the “Antagonist Mode Emax%” value in test [6] (antagonist mode, 30 nM α-methylserotonin as reference agonist) is 2%.
